Assay [1] has as its system Caldalkalibacillus thermarum TA2.A1. Briefly: Selectivity ratio of IC50 for wild type Caldalkalibacillus thermarum TA2.A1 NDH2 to IC50 for C-terminal His-tagged Caldalkalibacillus thermarum TA2.A1 NDH2 R347C mutant.
Assay [2] is described as follows: Inhibition of wild type Caldalkalibacillus thermarum TA2.A1 NDH2 preincubated for 1 hr followed by NADH addition measured after 8 mins.
Assay [3] has as its system Caldalkalibacillus thermarum TA2.A1. Description: Selectivity ratio of IC50 for wild type Caldalkalibacillus thermarum TA2.A1 NDH2 to IC50 for C-terminal His-tagged Caldalkalibacillus thermarum TA2.A1 NDH2 R382C mutant.
The nature of assay [4]: Inhibition of C-terminal His-tagged Caldalkalibacillus thermarum TA2.A1 NDH2 R347C mutant preincubated for 1 hr followed by NADH addition measured after 8 mins.
A short description of assay [5]: Inhibition of C-terminal His-tagged Caldalkalibacillus thermarum TA2.A1 NDH2 R382C mutant preincubated for 1 hr followed by NADH addition measured after 8 mins.

Each structure is given as a SMILES string.

Broadly, the IC50 is the midpoint of a concentration-inhibition curve. Lower therefore signals greater potency. With `CN(C)CCSSCCNC(=O)CCC(=O)c1ccccn1`, the Ratio IC50 in assay [1] and in assay [3] was 9.3 throughout. In addition, the figures for the IC50 in assay [2], in assay [4] and in assay [5] were 42.2 µM, 5.9 µM and 3.2 µM, respectively.

For `CN(C)CCSSCCNC(=O)[C@H]1CCCN(C(=O)c2cc3cccc(O)c3cc2O)C1`, the Ratio IC50 in assay [1] and in assay [3] was 0.6 each time. Moreover, the IC50 in assay [2] came to 11.3 µM; in assay [4] it was 21.9 µM; in assay [5], 13 µM.

With `CN(C)CCSSCCNC(=O)C(CC(=O)c1ccccc1)c1cc2ccccc2n1C` (stereo unspecified), the Ratio IC50 in assay [1] and in assay [3] was 1.3 in each case. Also, the IC50 in assay [2] came out at 12.8 µM; in assay [4], 12.9 µM; in assay [5] it was 7 µM.

The molecule `CN1CCN(CCCN2c3ccccc3Sc3ccc(C(F)(F)F)cc32)CC1` [TRIFLUOPERAZINE] had an IC50 in assay [2] of 50 µM.

For `CN(C)CCSSCCNC(=O)c1c(N)cccc1Cl`, the Ratio IC50 in assay [1] and in assay [3] was 0.8 each time. Also, the IC50 in assay [2] is 38.1 µM; in assay [4], 60.8 µM; in assay [5] it was 33.5 µM.

In the case of `CN(C)CCSSCCn1cc(-c2ccc(N(C)C)cc2)nn1`, the Ratio IC50 in assay [1] and in assay [3] was 3.6 in each case. Also, the IC50 in assay [2] worked out at 147 µM; in assay [4], 56.8 µM; in assay [5], 24 µM.

As to `NCCSSCCNC(=O)C1CCN(C(=O)c2ccc3ncsc3c2)CC1`, the Ratio IC50 in assay [1] and in assay [3] was 3.7 each time. The values for the IC50 in assay [2], in assay [4] and in assay [5] were 52 µM, 9.9 µM and 18.6 µM, respectively.

For the molecule `CN(C)CCSSCCNC(=O)[C@H]1CCCN(C(=O)c2ccc(-n3cccc3)cc2)C1`, the Ratio IC50 in assay [1] and in assay [3] was 3 each time. In addition, the IC50 is 80.3 µM in assay [2], 26.5 µM in assay [4] and 26.9 µM in assay [5].

As to `CN(C)CCSSCCNC(=O)c1ccc(C#Cc2ccccc2)o1`, the Ratio IC50 in assay [1] and in assay [3] was 0.9 each time. Moreover, the IC50 in assay [2] stood at 5.6 µM; in assay [4] it was 5.9 µM; in assay [5] it was 6.3 µM.

With `CN(C)CCSSCCNC(=O)c1cccc2cc[nH]c12`, the Ratio IC50 in assay [1] and in assay [3] was 0.9 in each case. Besides, the values for the IC50 in assay [2], in assay [4] and in assay [5] were 61.9 µM, 110 µM and 32.6 µM, respectively.

For `CN(C)CCSSCCCNC(=O)c1cccc(N(C)C)c1`, the Ratio IC50 in assay [1] and in assay [3] was 2.8 in each case. The IC50 in assay [2] was 36 µM; in assay [4], 14.5 µM; in assay [5], 11.5 µM.
